In US20250122160A1, “PROTEIN TYROSINE PHOSPHATASE INHIBITORS AND METHODS OF USE THEREOF” (Calico Life Sciences LLC, priority 0001, published 2025):

Columns and labels:
[1] = target: T1, His tagged PTPN2 (TC45) protein (Homo sapiens, UniProt P17706); experiment: Mobility shift assay (MSA) to determine potency of PTPN2 inhibitors; type: biochemical; conditions: 0.5 nM enzyme, 2 μM substrate
T1 construct: made in house
T1 sequence (P17706 with tags, fused parts or gaps isoform P17706-2): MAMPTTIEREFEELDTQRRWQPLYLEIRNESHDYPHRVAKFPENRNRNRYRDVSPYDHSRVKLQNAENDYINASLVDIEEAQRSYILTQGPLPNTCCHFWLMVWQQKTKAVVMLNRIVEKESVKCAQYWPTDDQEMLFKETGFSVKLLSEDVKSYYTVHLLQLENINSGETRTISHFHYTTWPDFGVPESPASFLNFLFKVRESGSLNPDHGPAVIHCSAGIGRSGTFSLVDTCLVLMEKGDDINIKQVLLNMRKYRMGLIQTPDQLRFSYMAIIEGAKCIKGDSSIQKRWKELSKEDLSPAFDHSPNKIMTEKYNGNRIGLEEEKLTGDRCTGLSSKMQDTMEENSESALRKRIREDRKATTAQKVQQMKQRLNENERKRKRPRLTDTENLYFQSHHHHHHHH
Method: Compound activity was determined using in house His tagged PTPN2 (TC45) protein (SEQ ID NO: 1) in an in vitro enzymatic reaction. The enzymatic assay used to determine activity was a mobility shift assay using a LabChip EZ Reader by Caliper Life Sciences. The enzymatic reaction was carried out in assay buffer (50 mM HEPES pH 7.5, 1 mM EGTA, 10 mM EDTA, 0.01% Tween® 20, and 2 mM DTT). The compounds were dispensed on a white 384 well ProxiPlate™ (PerkinElmer Catalog #6008289) plate using the Labcyte Echo at varying concentrations (12 point, 1:3 dilution). The enzyme (at 0.5 nM) was incubated with compound for 10 minutes at room temperature. Then the substrate (phosphorylated insulin receptor probe sequence: ((OG488)-(NH—CH2—CH2—O—CH2—CH2—O—CH2—CO)-T-R-D-I-(PY)-E-T-D-Y—Y—R—K—K—NH2) (SEQ ID NO: 2) was added at 2 μM to the plates and incubated for another 10 minutes at room temperature. Finally, a quench solution (water and 4-bromo-3-(2-oxo-2-propoxyethoxy)-5-(3-{[1-(phenylmethanesulfonyl)piperidin-4-yl]amino}phenyl)thiophene-2-carboxylic acid) was added to the plates, which were then run on the EZ Reader (excitation 488 nm, emission 530 nm) to measure % conversion (the amount of phosphorylated substrate which was de-phosphorylated by PTPN2). […] The % inhibition was then used to calculate the IC50 values.

[2] = target: T2, His tagged full-length PTPN1 protein (Homo sapiens, UniProt P18031); experiment: Mobility shift assay (MSA) to determine potency of PTPN1 inhibitors; type: biochemical; conditions: 0.5 nM enzyme, 2 μM substrate
T2 construct: made in house
T2 sequence (P18031 with tags, fused parts or gaps): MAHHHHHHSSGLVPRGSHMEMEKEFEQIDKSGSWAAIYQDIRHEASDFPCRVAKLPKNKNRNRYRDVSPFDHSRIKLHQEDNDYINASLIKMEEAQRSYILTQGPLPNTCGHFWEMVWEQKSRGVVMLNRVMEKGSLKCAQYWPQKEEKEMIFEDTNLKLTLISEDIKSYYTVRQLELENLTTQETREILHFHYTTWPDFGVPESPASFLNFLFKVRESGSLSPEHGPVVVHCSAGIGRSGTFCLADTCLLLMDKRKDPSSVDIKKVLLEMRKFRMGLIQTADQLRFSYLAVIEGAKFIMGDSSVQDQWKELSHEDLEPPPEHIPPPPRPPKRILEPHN
Method: Compound activity was determined using in house His tagged full-length PTPN1 protein (SEQ ID NO: 3) in an in vitro enzymatic reaction. The enzymatic assay used to determine activity is a mobility shift assay using a LabChip EZ Reader by Caliper Life Sciences. The enzymatic reaction was carried out in assay buffer (50 mM HEPES pH 7.5, 1 mM EGTA, 10 mM EDTA. 0.01% Tween® 20, and 2 mM DTT). The compounds were dispensed on a white 384 well ProxiPlate™ (PerkinElmer Cat #6008289) plate using a Labcyte Echo® liquid handler at varying concentrations (12 point, 1:3 dilution). The enzyme (at 0.5 nM) was incubated with compound for 10 minutes at room temperature. Then the substrate (phosphorylated insulin receptor probe sequence: ((OG488)-(NH—CH2—CH2—O—CH2—CH2—O—CH2—CO)-T-R-D-I-(PY)-E-T-D-Y—Y—R—K—K—NH2) (SEQ ID NO: 2) was added at 2 μM to the plates and incubated for another 10 minutes at room temperature. Finally, a quench solution (water and 4-bromo-3-(2-oxo-2-propoxyethoxy)-5-(3-{[1-(phenylmethanesulfonyl)piperidin-4-yl]amino}phenyl)thiophene-2-carboxylic acid) was added to the plates, which were then run on the EZ Reader (excitation 488 nm, emission 530 nm) to measure % conversion (the amount of phosphorylated substrate which was de-phosphorylated by PTPN1). […] The % inhibition was then used to calculate the IC50 values.

Row | IC50 [2] [nM] | SMILES | IC50 [1] [nM]
1 | 10 to 100 | CC1C[C@@H](NC(=O)OC(C)(C)C)Cc2c1cc(O)c(N1CC(=O)NS1(=O)=O)c2F (mixture of isomers) [Compound 392, tert-butyl [(2R)-8-fluoro-6-hydroxy-4-methyl-7-(1,1,4-trioxo-1λ^6,2,5-thiadiazolidin-2-yl)-1,2,3,4-tetrahydronaphthalen-2-yl]carbamate] | 10 to 100
2 | 10 to 100 | CO[C@@H]1CCc2cc(O)c(N3CC(=O)NS3(=O)=O)c(F)c2C1 (single isomer, unassigned) [Compound 104] | 
3 | 10 to 100 | CO[C@H]1CCc2cc(O)c(N3CC(=O)NS3(=O)=O)c(F)c2C1 (single isomer, unassigned) [Compound 109] | 
4 | 1 to 10 | O=C1CN(c2c(O)cc3c(c2F)C[C@H](NCCC2CC2)CC3)S(=O)(=O)N1 (single isomer, unassigned) [Compound 133] | 
5 | 10 to 100 | O=C1CN(c2c(O)cc3c(c2F)C[C@@H](NCCC2CC2)CC3)S(=O)(=O)N1 (single isomer, unassigned) [Compound 134] | 
6 | 10 to 100 | O=C1CN(c2c(O)cc3c(c2F)C[C@@H]([C@H]2CCNC2)CC3)S(=O)(=O)N1 (single isomer, unassigned) [Compound 138] | 
7 | 10 to 100 | O=C1CN(c2c(O)cc3c(c2F)C[C@@H](NCCCC(F)(F)F)CC3)S(=O)(=O)N1 (single isomer, unassigned) [Compound 147] | 
8 | < 1 | O=C1CN(c2c(O)cc3c(c2F)C[C@H](NCCC2(C(F)(F)F)CC2)CC3)S(=O)(=O)N1 (single isomer, unassigned) [Compound 148] | 
9 | 10 to 100 | CC(C)(CCN[C@H]1CCc2cc(O)c(N3CC(=O)NS3(=O)=O)c(F)c2C1)C(F)(F)F (single isomer, unassigned) [Compound 176] | 
10 | 1 to 10 | CC(C)(CCN[C@@H]1CCc2cc(O)c(N3CC(=O)NS3(=O)=O)c(F)c2C1)C(F)(F)F (single isomer, unassigned) [Compound 177] | 
11 | < 1 | O=C1CN(c2c(O)cc3c(c2F)C[C@H](NCCCC(F)F)CC3)S(=O)(=O)N1 (single isomer, unassigned) [Compound 199] | 
12 | 1 to 10 | O=C1CN(c2c(O)cc3c(c2F)C[C@H](NCCC(F)F)CC3)S(=O)(=O)N1 (single isomer, unassigned) [Compound 260] | 
13 | 10 to 100 | CC(C)CCNC[C@H]1Cc2cc(O)c(N3CC(=O)NS3(=O)=O)c(F)c2C1 (single isomer, unassigned) [Compound 292] | 
14 | > 100 | [2H]C1([2H])Cc2cc(O)c(N3CC(=O)NS3(=O)=O)c(F)c2C([2H])([2H])[C@@]1([2H])NCCC(C)C (single isomer, unassigned) [Compound 370] | 10 to 100
15 | 10 to 100 | O=C1CN(c2c(O)cc3c(c2F)CCCO3)S(=O)(=O)N1 [Compound 111, 5-(5-fluoro-7-hydroxy-3,4-dihydro-2H-1-benzopyran-6-yl)-1λ^6,2,5-thiadiazolidine-1,1,3-trione] | 10 to 100
16 | 1 to 10 | CC(C)CCCC1CCc2cc(O)c(N3CC(=O)NS3(=O)=O)c(F)c2C1 (centres unmarked) [Compound 323] | 

Further lines, the molecule ahead of its results:

Row | SMILES | IC50 [2] [nM] | IC50 [1] [nM]
17 | O=C1CN(c2c(O)cc3c(c2F)C[C@H](NCC2C4CCCC42)CO3)S(=O)(=O)N1 (mixture of isomers) [Compound 383, 5-[(3S)-3-({[(1RS,5SR)-bicyclo[3.1.0]hexan-6-yl]methyl}amino)-5-fluoro-7-hydroxy-3,4-dihydro-2H-1-benzopyran-6-yl]-1λ^6,2,5-thiadiazolidine-1,1,3-trione] | 10 to 100 | 10 to 100
18 | O=C1CN(c2c(O)cc3c(c2F)CN(C[C@H]2C[C@@H]2c2ccncc2)CC3)S(=O)(=O)N1 (racemic) [Compound 248] | 10 to 100 | 
19 | CC(C)CCN[C@H]1CCc2cc(O)c(N3CC(=O)NS3(=O)=O)c(F)c2C1 (single isomer, unassigned) [Compound 117] | 10 to 100 | 
20 | O=C1CN(c2c(O)cc3c(c2F)C[C@@H]([C@@H]2CCNC2)CC3)S(=O)(=O)N1 (single isomer, unassigned) [Compound 136] | 10 to 100 | 
21 | O=C1CN(c2c(O)cc3c(c2F)C[C@@H]([C@@H]2CCN(S(=O)(=O)C4CC4)C2)CC3)S(=O)(=O)N1 (single isomer, unassigned) [Compound 137] | 1 to 10 | 
22 | O=C1CN(c2c(O)cc3c(c2F)C[C@@H]([C@H]2CCN(S(=O)(=O)C4CC4)C2)CC3)S(=O)(=O)N1 (single isomer, unassigned) [Compound 139] | 10 to 100 | 
23 | O=C1CN(c2c(O)cc3c(c2F)C[C@@H](NCCC(F)F)CC3)S(=O)(=O)N1 (single isomer, unassigned) [Compound 259] | 10 to 100 | 
24 | CC(C)CCNC[C@@H]1Cc2cc(O)c(N3CC(=O)NS3(=O)=O)c(F)c2C1 (single isomer, unassigned) [Compound 291] | 1 to 10 | 
25 | C[C@@H](O)CCN[C@@H]1CCc2cc(O)c(N3CC(=O)NS3(=O)=O)c(F)c2C1 (single isomer, unassigned) [Compound 307] | 1 to 10 | 
26 | CC(C)(CO)CCN[C@@H]1CCc2cc(O)c(N3CC(=O)NS3(=O)=O)c(F)c2C1 (single isomer, unassigned) [Compound 308] | 1 to 10 | 
27 | [2H]C1([2H])Cc2cc(O)c(N3CC(=O)NS3(=O)=O)c(F)c2C([2H])([2H])[C@]1([2H])NCCC(C)C (single isomer, unassigned) [Compound 371] | 1 to 10 | < 1
28 | NC[C@H]1Cc2cc(O)c(N3CC(=O)NS3(=O)=O)c(F)c2C1 (single isomer, unassigned) [Compound 407] | 10 to 100 | 10 to 100
29 | NC[C@@H]1Cc2cc(O)c(N3CC(=O)NS3(=O)=O)c(F)c2C1 (single isomer, unassigned) [Compound 408] | 1 to 10 | 1 to 10
30 | O=C1CN(c2c(O)cc3c(c2F)CCCC3)S(=O)(=O)N1 [Compound 108] | 10 to 100 | 10 to 100
31 | CC1(C)CCc2c(cc(O)c(N3CC(=O)NS3(=O)=O)c2F)O1 [Compound 112] | > 100 | > 100
32 | CC1(C)CCc2cc(O)c(N3CC(=O)NS3(=O)=O)c(F)c2O1 [Compound 113] | > 100 | > 100
33 | O=C1CN(c2c(O)cc3c(c2F)CNCC3)S(=O)(=O)N1 [Compound 143, 5-(8-fluoro-6-hydroxy-1,2,3,4-tetrahydroisoquinolin-7-yl)-1λ^6,2,5-thiadiazolidine-1,1,3-trione] | > 100 | 10 to 100
34 | Cc1cc(CNC(=O)N2CCc3cc(O)c(N4CC(=O)NS4(=O)=O)c(F)c3C2)n(C)n1 [Compound 265] |  | 10 to 100
35 | CN(C)CCCNC(=O)N1CCc2cc(O)c(N3CC(=O)NS3(=O)=O)c(F)c2C1 [Compound 285] |  | 10 to 100
36 | CC1=C(CCN[C@@H]2COc3cc(O)c(N4CC(=O)NS4(=O)=O)c(F)c3C2)C(C)(C)CCC1 [Compound 378, 5-[(3S)-5-fluoro-7-hydroxy-3-{[2-(2,6,6-trimethylcyclohex-1-en-1-yl)ethyl]amino}-3,4-dihydro-2H-1-benzopyran-6-yl]-1λ^6,2,5-thiadiazolidine-1,1,3-trione] |  | 10 to 100
